Where “and” joins values, the source holds several entries; their conditions need not be identical. Equal values may be shown once. Toxic doses and inconclusive results are not listed. Rule as the data show it: active = T/C of 150% or more; inactive = T/C below 125%.
System: L1210 leukemia ip in BDF1 mice, survival T/C
Test: NCI In Vivo Anticancer Drug Screen. Data for tumor model L1210 Leukemia (intraperitoneal) in B6D2F1 (BDF1) mice
Settings: endpoint: mean survival time, higher = longer survival
Summary of the method: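 In this screen, tumor-bearing mice given compound are compared to those given vehicle, and their survival values are reported as a treated-to-control quotient.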

[1] = dose: 12.5 mg/kg/injection, schedule: Q01DX009 (ip), vehicle: saline
[2] = dose: 12.5 mg/kg/injection, schedule: Q04DX003 (ip), vehicle: saline
[3] = dose: 25.0 mg/kg/injection, schedule: Q04DX003 (ip), vehicle: saline
[4] = dose: 50.0 mg/kg/injection, schedule: Q04DX003 (ip), vehicle: saline
[5] = dose: 100.0 mg/kg/injection, schedule: Q04DX003 (ip), vehicle: saline
[6] = dose: 25.0 mg/kg/injection, schedule: Q01DX009 (ip), vehicle: saline with Tween-80
[7] = dose: 50.0 mg/kg/injection, schedule: Q01DX009 (ip), vehicle: saline with Tween-80
[8] = dose: 100.0 mg/kg/injection, schedule: Q01DX009 (ip), vehicle: saline with Tween-80
[9] = dose: 200.0 mg/kg/injection, schedule: Q01DX009 (ip), vehicle: saline with Tween-80
[10] = dose: 25.0 mg/kg/injection, schedule: Q01DX001 (ip), vehicle: saline
[11] = dose: 50.0 mg/kg/injection, schedule: Q01DX001 (ip), vehicle: saline
[12] = dose: 100.0 mg/kg/injection, schedule: Q01DX001 (ip), vehicle: saline
[13] = dose: 200.0 mg/kg/injection, schedule: Q01DX001 (ip), vehicle: saline
[14] = dose: 400.0 mg/kg/injection, schedule: Q01DX001 (ip), vehicle: saline
[15] = dose: 100.0 mg/kg/injection, schedule: Q04DX002 (ip), vehicle: saline with Tween-80
[16] = dose: 200.0 mg/kg/injection, schedule: Q04DX002 (ip), vehicle: saline with Tween-80
[17] = dose: 100.0 mg/kg/injection, schedule: Q04DX003 (ip), vehicle: saline with Tween-80
[18] = dose: 200.0 mg/kg/injection, schedule: Q04DX003 (ip), vehicle: saline with Tween-80

Measured: T/C

NC1(CO)COC(c2ccccc2)OC1 (centres undefined)
inactive: [1] 102 % of control | [2] 102 % of control | dose: 25.0 mg/kg/injection, schedule: Q01DX009 (ip), vehicle: saline 94 % of control | [3] 96 % of control | dose: 50.0 mg/kg/injection, schedule: Q01DX009 (ip), vehicle: saline 96 % of control and 104 % of control | [4] 105 % of control | dose: 100.0 mg/kg/injection, schedule: Q01DX009 (ip), vehicle: saline sonified 96 % of control | dose: 100.0 mg/kg/injection, schedule: Q01DX009 (ip), vehicle: saline 112 % of control | [5] 107 % of control and 110 % of control

CCNC(=O)NC(=O)CN1CCOCC1
inactive: dose: 100.0 mg/kg/injection, schedule: Q04DX003 (ip), vehicle: saline sonified 100 % of control | dose: 200.0 mg/kg/injection, schedule: Q04DX003 (ip), vehicle: saline sonified 102 % of control | dose: 400.0 mg/kg/injection, schedule: Q04DX003 (ip), vehicle: saline sonified 100 % of control

COc1cccc2c1C(=O)c1c(O)c3c(c(O)c1C2=O)C[C@@](O)(/C(C)=N\NC(=O)CO)C[C@@H]3OC1CC(N)C(O)C(C)O1 (some centres undefined)
inactive: dose: 0.88 mg/kg/injection, schedule: Q04DX003 (ip), vehicle: saline 119 % of control | dose: 1.33 mg/kg/injection, schedule: Q04DX003 (ip), vehicle: saline 124 % of control | dose: 3.0 mg/kg/injection, schedule: Q04DX003 (ip), vehicle: saline 120 % of control | dose: 3.5 mg/kg/injection, schedule: Q01DX009 (ip), vehicle: saline 122 % of control | dose: 6.25 mg/kg/injection, schedule: Q01DX009 (ip), vehicle: saline 105 % of control | dose: 7.0 mg/kg/injection, schedule: Q01DX009 (ip), vehicle: saline 123 % of control | [1] 116 % of control | dose: 14.0 mg/kg/injection, schedule: Q01DX009 (ip), vehicle: saline 95 % of control and 99 % of control | dose: 14.0 mg/kg/injection, schedule: Q04DX003 (ip), vehicle: saline 108 % of control | dose: 16.0 mg/kg/injection, schedule: Q04DX003 (ip), vehicle: saline 112 % of control | [3] 102 % of control | dose: 32.0 mg/kg/injection, schedule: Q04DX003 (ip), vehicle: saline 111 % of control | [4] 91 % of control

COc1cc(C(C)=O)ccc1OCc1ccccc1
inactive: [6] 98 % of control and 107 % of control | [7] 96 % of control and 103 % of control | [8] 96 % of control and 101 % of control | [9] 93 % of control and 112 % of control

C=C1CC2(C)C(=O)CCCC2OC1=O (centres undefined)
inactive: [10] 91 % of control | [11] 100 % of control | dose: 100.0 mg/kg/injection, schedule: Q01DX001 (ip), vehicle: saline with Tween-80 102 % of control | [12] 106 % of control

OCC(O)C(O)C(O)C(O)C(c1ccccc1)c1ccccc1 (centres undefined)
inactive: [11] 107 % of control | [12] 103 % of control | [13] 101 % of control | [14] 101 % of control

Cn1cccc1/C=C/[N+](=O)[O-]
inactive: [11] 104 % of control | [12] 91 % of control

O=C(O)/C=C\C(Cl)(Cl)Cl
inactive: [15] 97 % of control | [16] 93 % of control

COc1c2c(c(OC)c3c1c(=O)c1ccccc1n3C)OCO2
inactive: dose: 100.0 mg/kg/injection, schedule: Q01DX001 (ip), vehicle: carboxymethylcellulose (CMC) 102 % of control | dose: 200.0 mg/kg/injection, schedule: Q01DX001 (ip), vehicle: carboxymethylcellulose (CMC) 98 % of control | dose: 300.0 mg/kg/injection, schedule: Q01DX001 (ip), vehicle: carboxymethylcellulose (CMC) 102 % of control | dose: 400.0 mg/kg/injection, schedule: Q01DX001 (ip), vehicle: carboxymethylcellulose (CMC) 96 % of control | dose: 500.0 mg/kg/injection, schedule: Q01DX001 (ip), vehicle: carboxymethylcellulose (CMC) 93 % of control

O=C(O)CSCCSCC(=O)O
inactive: dose: 12.5 mg/kg/injection, schedule: Q04DX002 (ip), vehicle: carboxymethylcellulose (CMC) 95 % of control | dose: 25.0 mg/kg/injection, schedule: Q04DX002 (ip), vehicle: carboxymethylcellulose (CMC) 97 % of control | dose: 50.0 mg/kg/injection, schedule: Q04DX002 (ip), vehicle: carboxymethylcellulose (CMC) 98 % of control | [8] 104 % of control | [9] 94 % of control and 91 % of control

CNC1C(O)C(OC)OC2COC(c3ccccc3)OC21 (centres undefined)
inactive: [17] 93 % of control | [18] 93 % of control

CCN(C(=O)c1ccccc1Cl)C(c1ccco1)P(=O)(c1ccccc1)c1ccccc1 (centres undefined)
inactive: [15] 93 % of control | [16] 86 % of control | dose: 400.0 mg/kg/injection, schedule: Q04DX002 (ip), vehicle: saline with Tween-80 117 % of control

CC1(C)CCCC2(C)C1CC(O)C1(CO1)C2CCC(C)(O)C1CO1 (centres undefined)
inactive: dose: 25.0 mg/kg/injection, schedule: Q01DX009 (ip), vehicle: DMSO 92 % of control | dose: 25.0 mg/kg/injection, schedule: Q04DX003 (ip), vehicle: DMSO 88 % of control | dose: 50.0 mg/kg/injection, schedule: Q01DX009 (ip), vehicle: DMSO 96 % of control | dose: 50.0 mg/kg/injection, schedule: Q04DX003 (ip), vehicle: DMSO 93 % of control | dose: 100.0 mg/kg/injection, schedule: Q04DX003 (ip), vehicle: DMSO 97 % of control and 92 % of control

CC[C@H](CC[C@@H](C)[C@H]1CC[C@H]2[C@@H]3CC=C4C[C@@H](O)CC[C@]4(C)[C@H]3CC[C@]12C)C(C)C
inactive: dose: 12.5 mg/kg/injection, schedule: Q01DX001 (ip), vehicle: saline 93 % of control | [2] 98 % of control | [10] 94 % of control | [3] 105 % of control | [11] 88 % of control | [4] 98 % of control | dose: 75.0 mg/kg/injection, schedule: Q04DX003 (ip), vehicle: saline 89 % of control | [12] 89 % of control and 95 % of control | dose: 115.0 mg/kg/injection, schedule: Q04DX003 (ip), vehicle: saline 91 % of control | dose: 170.0 mg/kg/injection, schedule: Q04DX003 (ip), vehicle: saline 87 % of control | [13] 97 % of control | dose: 255.0 mg/kg/injection, schedule: Q04DX003 (ip), vehicle: saline with Tween-80 90 % of control | dose: 385.0 mg/kg/injection, schedule: Q04DX003 (ip), vehicle: saline with Tween-80 96 % of control | [14] 104 % of control and 107 % of control

CC1=CC(O)Nc2c(CBr)cccc21 (centres undefined)
inactive: [6] 97 % of control | [7] 103 % of control | [12] 107 % of control | [5] 101 % of control | [13] 95 % of control | [14] 91 % of control

CN(C)/N=C(\Cc1ccccc1)c1ccccc1
inactive: dose: 100.0 mg/kg/injection, schedule: Q01DX001 (ip), vehicle: Klucel (hydroxypropylcellulose) (HPC) 99 % of control | dose: 200.0 mg/kg/injection, schedule: Q01DX001 (ip), vehicle: Klucel (hydroxypropylcellulose) (HPC) 99 % of control | dose: 400.0 mg/kg/injection, schedule: Q01DX001 (ip), vehicle: Klucel (hydroxypropylcellulose) (HPC) 98 % of control

CN(C)c1ccc(Cc2ccc(N(C)C)cc2[N+](=O)[O-])c([N+](=O)[O-])c1
inactive: dose: 50.0 mg/kg/injection, schedule: Q01DX009 (ip), vehicle: Klucel (hydroxypropylcellulose) (HPC) 100 % of control | dose: 100.0 mg/kg/injection, schedule: Q01DX009 (ip), vehicle: Klucel (hydroxypropylcellulose) (HPC) 98 % of control and 92 % of control | dose: 100.0 mg/kg/injection, schedule: Q04DX003 (ip), vehicle: Klucel (hydroxypropylcellulose) (HPC) 101 % of control and 102 % of control | dose: 200.0 mg/kg/injection, schedule: Q01DX009 (ip), vehicle: Klucel (hydroxypropylcellulose) (HPC) 97 % of control and 101 % of control | dose: 200.0 mg/kg/injection, schedule: Q04DX003 (ip), vehicle: Klucel (hydroxypropylcellulose) (HPC) 102 % of control and 104 % of control | dose: 400.0 mg/kg/injection, schedule: Q01DX009 (ip), vehicle: Klucel (hydroxypropylcellulose) (HPC) 101 % of control and 92 % of control | dose: 400.0 mg/kg/injection, schedule: Q04DX003 (ip), vehicle: Klucel (hydroxypropylcellulose) (HPC) 98 % of control and 105 % of control

CCCOP(=O)(OCCC)C(OC(=O)C(C)(C)Br)=C(C)C
inactive: [17] 100 % of control | [18] 100 % of control | dose: 400.0 mg/kg/injection, schedule: Q04DX003 (ip), vehicle: saline with Tween-80 100 % of control

Reference: PubChem BioAssay AID248 (DTP/NCI, 2004)
